The assay relates to H1.0K180me2 appearance in SR hADSCs. Kind of assay: Western blot of H1.0K180me2 in hADSCs treated with bleomycin after rapamycin or everolimus pretreatment. The note with it: 500 nM pretreatment for 24 hours, then bleomycin 2 hours. It is filed as cell-based, human. From the text:
Material for western blot analysis (cultured cells or tissue) was lysed in ice-cold RIPA lysis buffer (Thermo Scientific 89900) and sonicated using a Covaris S2 sonicator (10% duty cycle, Intensity 5, Bursts per minute 100, 120 seconds). Total protein concentration in each sample was quantified using Quick Start Bradford 1× Dye Reagent (BioRad, 5000205) following manufacturer's protocol. Samples were then mixed with NuPAGE LDS sample loading buffer (ThermoFisher, NP0007) and NuPAGE sample reducing buffer (ThermoFisher, NP0004), and heat denatured at 70° C. for 10 minutes. Proteins were separated on 4-12% precast polyacrylamide gels (ThermoFisher, NP0321) by electrophoresis and transferred to 0.45 μm nitrocellulose membrane. […] Proteins were detected with HRP secondary antibodies listed above for 1 hour at RT followed by ECL Western Blotting Substrate (ThermoFisher, 32106) using manufacturer's instructions. […]
To test if rapamycin derivatives can block H1.0K180me2 appearance upon DNA damage, SR hADSCs were treated with bleomycin for 2 hours with or without pretreatment with rapamycin or everolimus (a derivative of rapamycin) for 24 hours. Cells were then lysed and analyzed be western blot for H1.0K180me2, γH2A.X and β-Actin, according to methods described in Example 1.
On the technique in general: In western blotting, separated proteins are transferred to a membrane and probed.

Here are results for one molecule from patent US10921324B2, “Compositions and methods related to the methylation of histone H1.0 protein” (Aelan Cell Technologies, Inc., priority 2016, dated 2021).

Structures are written as SMILES. “Also recorded” adds a separate entry of the source.

With `CO[C@H]1C[C@@H]2CC[C@@H](C)[C@@](O)(O2)C(=O)C(=O)N2CCCC[C@H]2C(=O)O[C@H]([C@H](C)C[C@@H]2CC[C@@H](OCCO)[C@H](OC)C2)CC(=O)[C@H](C)/C=C(\C)[C@@H](O)[C@@H](OC)C(=O)[C@H](C)C[C@H](C)/C=C/C=C/C=C/1C` [everolimus], the “appearance of H1.0K180me2 upon bleomycin treatment” value is recorded as “blocks H1.0K180me2 deposition on chromatin; also recorded: blocks H1.0K180me2 appearance”.
